Experimental data taken from US20020076728A1, “Engineering affinity ligands for macromolecules” (priority 1997, published 2002).
Where “and” joins values, the source holds several entries; their conditions need not be identical. Equal values may be shown once. Values belong to the molecule of their own block, whether it stands above or below them. Ends that are not written are not given here.

Key:
tPA = tPA (Homo sapiens, UniProt P00750); assay: 15-amino acid segment of #109 bound to chromatographic support, tPA binding; settings: bound to a chromatographic support; initial studies
Text: As noted above, almost all of the variegation in amino acid positions used in building the CMTI library occurred between two cyteines at positions 3 and 10 of CMTI-I (see Table 3). In the parental CMTI protein, these cysteines form disulfide bonds with other cysteine residues elsewhere in the protein (see SEQ ID NO: 1), however with the successful isolation of affinity ligands from the CMTI library, a secondary library was conceptualized which was based on variegating a truncated 15-amino acid segment of the isolate #109 (see amino acids 1-15 of SEQ ID NO: 12). If the C3 and C10 cysteines of these members formed a disulfide bond, then a constrained loop having tPA binding properties might be obtained.

M13 phage = assay: Stability of M13 in various organic solvents (phage survival); settings: for surviving phage: incubation for 20 minutes with 80% solvent
Text: Thus, if phage display libraries are used, it is of interest to determine whether organic solvents disrupt the phage.

[1] = side-chain ionizable group of the amino acid type in proteins; cited from earlier work
[2] = biological target: T1, recombinant human tissue-type plasminogen activator (human, UniProt P00750 36-562); assay: peptide bound to a chromatographic support
T1 construct: Bought; immobilised on Reacti-Gel agarose beads for phage work, in solution for column tests; also called tPA

[3] = 10% solvent by volume in Luria broth
[4] = 20% solvent by volume in Luria broth
[5] = 40% solvent by volume in Luria broth
[6] = 80% solvent by volume in Luria broth
[7] = 2% solvent by volume in Luria broth
[8] = 5% solvent by volume in Luria broth

T1 sequence (P00750 36-562 limits assumed): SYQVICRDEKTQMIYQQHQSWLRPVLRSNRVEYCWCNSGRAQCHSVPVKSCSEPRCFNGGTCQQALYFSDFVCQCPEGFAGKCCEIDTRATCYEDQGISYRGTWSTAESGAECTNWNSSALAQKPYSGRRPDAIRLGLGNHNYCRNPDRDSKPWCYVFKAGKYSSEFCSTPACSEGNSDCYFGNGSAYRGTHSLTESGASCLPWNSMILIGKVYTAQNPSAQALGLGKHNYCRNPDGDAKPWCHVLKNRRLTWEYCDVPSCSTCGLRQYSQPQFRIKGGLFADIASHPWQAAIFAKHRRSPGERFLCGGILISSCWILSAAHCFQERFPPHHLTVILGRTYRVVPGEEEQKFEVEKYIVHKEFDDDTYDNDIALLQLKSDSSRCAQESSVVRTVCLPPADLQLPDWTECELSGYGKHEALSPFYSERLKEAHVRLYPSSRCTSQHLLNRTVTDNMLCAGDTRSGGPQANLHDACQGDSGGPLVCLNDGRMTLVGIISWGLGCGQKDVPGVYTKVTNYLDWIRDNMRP
tPA, sequence (P00750 36-562): as the sequence (P00750 36-562 limits assumed) above

Molecule: 15-amino acid segment derived from affinity ligand isolate #109: truncated 15-amino acid segment of isolate #109 (amino acids 1-15 of SEQ ID NO: 12), C3-C10 disulfide loop (RLCPKTDLGCMKDSD; also: C3-C10 disulfide stated only as a possibility)
binding of immobilized loop to tPA (tPA): bound to tPA

Molecule: CC#N [ACN, acetonitrile]
Survival after 20 min. (%) (M13 phage; [3]): 84% | Survival after 60 min. (%) (M13 phage; [3]): 74% | Survival after 20 min. (%) (M13 phage; [4]): 80% | Survival after 60 min. (%) (M13 phage; [4]): 91% | Survival after 20 min. (%) (M13 phage; [5]): 92% | Survival after 60 min. (%) (M13 phage; [5]): 89% | Survival after 20 min. (%) (M13 phage; [6]): 30% and 37% | Survival after 60 min. (%) (M13 phage; [6]): 8% and 3%

Molecule: N=C(N)NCCC[C@H](N)C(=O)O [Arg]
pKa range [1]: 12.0

Molecule: N[C@@H](CC(=O)O)C(=O)O [Asp, aspartic acid]
pKa range [1]: 3.9-4.0

Molecule: N[C@@H](CS)C(=O)O [Cys (not in disulfide)]
pKa range [1]: 9.0-9.5

Molecule: CN(C)C=O [DMF, dimethylformamide]
surviving phage (M13 phage): no surviving phage

Molecule: C[S+](C)[O-] [DMSO, dimethylsulfoxide]
Survival after 20 min. (%) (M13 phage; [7]): 84% | Survival after 60 min. (%) (M13 phage; [7]): 89% | Survival after 20 min. (%) (M13 phage; [8]): 68% | Survival after 60 min. (%) (M13 phage; [8]): 86% | Survival after 20 min. (%) (M13 phage; [3]): 96% | Survival after 60 min. (%) (M13 phage; [3]): 86% | Survival after 20 min. (%) (M13 phage; [4]): 73% | Survival after 60 min. (%) (M13 phage; [4]): 82% | Survival after 20 min. (%) (M13 phage; [6]): 1% | Survival after 60 min. (%) (M13 phage; [6]): >1%

Molecule: CCO [EtOH, ethanol]
surviving phage (M13 phage): no surviving phage

Molecule: N[C@@H](CCC(=O)O)C(=O)O [Glu]
pKa range [1]: 4.3-4.5

Molecule: N[C@@H](Cc1c[nH]cn1)C(=O)O [His, Histidine]
pKa range [1]: 6.0-7.0

Molecule: CC(C)O [IPA, isopropyl alcohol]
surviving phage (M13 phage): no surviving phage

Molecule: NCCCC[C@H](N)C(=O)O [Lys]
pKa range [1]: 10.4-11.1

Molecule: CO [MeOH, methanol]
Survival after 20 min. (%) (M13 phage; [3]): 110% | Survival after 60 min. (%) (M13 phage; [3]): 80% | Survival after 20 min. (%) (M13 phage; [4]): 93% | Survival after 60 min. (%) (M13 phage; [4]): 84% | Survival after 20 min. (%) (M13 phage; [5]): 92% | Survival after 60 min. (%) (M13 phage; [5]): 84%

binding result [2]: binds
B1: 15-amino acid segment derived from affinity ligand isolate #109 (peptide)
peptide: RLCPKTDLGCMKDSD
modifications: also: C3-C10 disulfide stated only as a possibility
notes: also called truncated 15-amino acid segment of the isolate #109; C3-C10 loop
